Data from ChEMBL document CHEMBL5226308, “Amide-Amine Replacement in Indole-2-carboxamides Yields Potent Mycobactericidal Agents with Improved Water Solubility” (ACS Med Chem Lett, 2021).
Active and inactive are the calls of the source. The calls are words filed in the database; no cut-off is given here.

How the values were obtained:
[1] = system: Mycobacterium tuberculosis variant bovis; test: Inhibition of MmpL3 C1932G/F644L mutant in Mycobacterium bovis BCG B47-4 assessed as reduction in TDM level at 1XMIC90 treated for 1 hr followed by incubation with [14C]acetate for 1 to 3 hrs by thin layer chromatography; conditions: time 2-4 hrs
[2] = system: Mycobacterium tuberculosis variant bovis; test: Inhibition of MmpL3 C1932G/F644L mutant in Mycobacterium bovis BCG B47-4 assessed as increase in TMM level at 1XMIC90 treated for 1 hr followed by incubation with [14C]acetate for 1 to 3 hrs by thin layer chromatography; conditions: time 2-4 hrs
[3] = system: Mycobacterium tuberculosis variant bovis; test: Inhibition of MmpL3 in Mycobacterium bovis BCG ATCC 35734 assessed as reduction in TDM level at 4XMIC90 treated for 1 hr followed by incubation with [14C]acetate for 1 to 3 hrs by thin layer chromatography; conditions: time 2-4 hrs
[4] = system: Mycobacterium tuberculosis variant bovis; test: Inhibition of MmpL3 in Mycobacterium bovis BCG ATCC 35734 assessed as increase in TMM level at 4XMIC90 treated for 1 hr followed by incubation with [14C]acetate for 1 to 3 hrs by thin layer chromatography; conditions: time 2-4 hrs
[5] = system: Mycobacterium tuberculosis variant bovis; test: Inhibition of MmpL3 in Mycobacterium bovis BCG ATCC 35734 assessed as reduction in TDM level at 1XMIC90 treated for 1 hr followed by incubation with [14C]acetate for 1 to 3 hrs by thin layer chromatography; conditions: time 2-4 hrs, TDE = time-dependent effect
[6] = system: Mycobacterium tuberculosis variant bovis; test: Inhibition of MmpL3 in Mycobacterium bovis BCG ATCC 35734 assessed as increase in TMM level at 1XMIC90 treated for 1 hr followed by incubation with [14C]acetate for 1 to 3 hrs by thin layer chromatography; conditions: time 2-4 hrs, TDE = time-dependent effect

SMILES | inhibition [1] | inhibition [2] | inhibition [3] | inhibition [4] | inhibition [5] | inhibition [6]
O=C(NC1CCCCCCC1)c1cc2ccccc2s1 | inactive | inactive |  |  |  | 
CC[C@@H](CO)NCCN[C@@H](CC)CO |  |  | inactive | inactive |  | 
c1ccc2sc(CNC3CCCCCCC3)cc2c1 | inactive | inactive |  |  | Tde | Tde
O=C(NC1CCCCCCC1)c1cc2ccc(C(F)(F)F)cc2[nH]1 | inactive | inactive |  |  | Tde | Tde
c1ccc2[se]c(CNC3CCCCCCC3)cc2c1 | inactive | inactive |  |  |  | 
Cc1c(CN2CCN(C)CC2)cc(-c2ccc(Cl)cc2)n1-c1ccc(Cl)cc1 | inactive | inactive |  |  | Tde | Tde
O=C(NC1CCCCCCC1)c1cc2ccccc2[se]1 | inactive | inactive |  |  |  | 
FC(F)(F)c1ccc2cc(CNC3CCCCCCC3)[nH]c2c1 | inactive | inactive |  |  | Tde | Tde
